Several values for one entry are separate records, joined by “and”; a condition that tells them apart may be missing. Identical values can stand only once.
Tests used:
[1] = biological target: T1, hM4Di (Homo sapiens, UniProt P08173, A203G/Y113C); test: [18F]JHU37107 PET in a monkey expressing hM4Di in the right amygdala; type: in vivo, rhesus monkey (Macaca mulatta); design: expressed in transfected cells; host or cells: rhesus monkey (Macaca mulatta) right amygdala, lentivirus-transduced neurons; settings: mean
T1 sequence (P08173 1-479 Y113C/A203G): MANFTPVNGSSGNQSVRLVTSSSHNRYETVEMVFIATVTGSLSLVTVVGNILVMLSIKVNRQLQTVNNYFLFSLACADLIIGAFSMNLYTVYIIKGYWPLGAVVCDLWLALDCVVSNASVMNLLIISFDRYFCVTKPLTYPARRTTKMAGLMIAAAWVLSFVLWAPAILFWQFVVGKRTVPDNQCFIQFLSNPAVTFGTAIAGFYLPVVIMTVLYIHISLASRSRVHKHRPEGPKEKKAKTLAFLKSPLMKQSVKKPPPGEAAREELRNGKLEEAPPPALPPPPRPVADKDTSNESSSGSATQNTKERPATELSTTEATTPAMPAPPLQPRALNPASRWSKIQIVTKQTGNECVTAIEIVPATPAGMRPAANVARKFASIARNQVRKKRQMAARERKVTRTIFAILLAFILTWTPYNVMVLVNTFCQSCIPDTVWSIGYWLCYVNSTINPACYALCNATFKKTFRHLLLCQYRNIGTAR
Procedure: Lentivirus expressing an hM4Di-CFP fusion protein under an hSyn promoter[11] with a titer of >10^9 infectious particles was loaded into a 100 µL glass syringe (Hamilton Co., MA). The 31-gauge needle of the syringe was sheathed with a silica capillary (450 µm OD) to create a step 1 mm from the base of the aperture. The syringe was mounted in a Nanomite pump (Harvard Apparatus, Cambridge, MA). The needle was lowered through the incision in the dura mater to each of the pre-calculated target sites and 10 or 20 µL was infused at a rate of 1 µL min^−1. Each monkey received a total of between 10 and 12 injections (for a total injection volume of 120–240 µL). Post-infusion, the needle was left in situ for 10 min after each injection to allow pressure from the infusate to dissipate. The needle was then slowly removed. At the completion of the injection series the soft tissues were sutured together in anatomical layers.
(§1) [^18F]JHU37107 was prepared via the no-carrier-added ^18F-fluorination using an FDG Nuclear Interface module (Muenster, Germany). Briefly, 4 mg precursor (8-chloro-11-(4-ethylpiperazin-1-yl)-5H-dibenzo[b,e][1,4]diazepin-2-ol) and 8 mg tris(acetonitrile)cyclopentadienylruthenium(II)hexafluorophosphate (STREM, Boston, MA) were dissolved in ethanol (0.3 mL), the solution was heated at 85 °C for 25 min and evaporated to dryness under a stream of argon gas. The residue was dissolved in DMSO (0.5 mL) and acetonitrile (0.5 mL) and the solution was added to a dry complex of [^18F]fluoride and 9 mg 1,3-bis(2,6-di-i-propylphenyl)-2-chloroimidazolium chloride (STREM). The reaction mixture was heated at 130 °C for 30 min, diluted with mixture of 0.5 mL acetonitrile, 0.5 mL water and 0.03 mL TFA and injected onto a semi-preparative HPLC column (Luna C18, 10 micron, 10 mm × 250 mm) and eluted with 23:77 (v:v) acetonitrile:water (0.1% trifluoroacetic acid) at a flow rate of 10 mL min^−1. The radioactive peak corresponding to [^18F]JHU37107 (tR = 9.9 min) was collected in a reservoir containing 50 mL of water and 3 mL aq 8.4% NaHCO3 solution. The diluted product was loaded onto a solid phase extraction cartridge (Waters Oasis HLB plus light) and rinsed with 10 mL sterile saline. The product was eluted with 1000 µL of ethanol through a sterile 0.2 μm filter into a sterile, pyrogen-free vial and 10 mL saline was added through the same filter. The final product [^18F]JHU37107 was then analyzed by analytical HPLC (Luna C18, 10 micron, 4.6 mm × 250 mm; mobile phase 23:77 (v:v) acetonitrile:water (0.1% trifluoroacetic acid), flow rate of 3 mL min^−1; tR = 6.4 min) using a UV detector at 254 nm to determine the radiochemical purity (>95%) and specific radioactivity (152–188 GBq μmol^−1 (4100–5070 mCi μmol^−1)) at the time synthesis ended.
All macaque studies were acquired dynamically on the Focus 220 PET scanner (Siemens Medical Solutions, Knoxville, TN). The Focus 220 is a dedicated pre-clinical scanner with a transaxial FOV of 19 cm and an axial FOV of 7.5 cm. Image resolution is <2 mm within the central 5 cm FOV.
After initial evaluation the monkey was sedated with ketamine (10 mg kg^−1) followed by ketoprofen (as an analgesic) and glycopyrrolate (for salvia reduction), all weight dependent IM injections. The monkey would then be placed in the supine position, intubated with a tracheal tube. […] The monkey was always monitored while anesthetized. […]

[2] = system: DREADDs; test: [18F]JHU37107 PET in D1-DREADD transgenic mice; type: in vivo
Procedure: as §1, with “[…] .” for “tR = 6.4 min) using a UV detector at 254 nm to determine the radiochemical purity (>95%) and specific radioactivity (152–188 GBq μmol^−1 (4100–5070 mCi μmol^−1)) at the time synthesis ended.”
Total acquisition time was 60 min.

[3] = biological target: hM3Dq (Homo sapiens, UniProt P20309, A239G/Y149C); test: [3H]clozapine competition binding, membranes of HEK-293 cells expressing hM3Dq
[4] = biological target: T1, hM4Di; test: [3H]clozapine competition binding, membranes of HEK-293 cells expressing hM4Di
[5] = system: untransfected HEK-293 cells; test: Negative controls of the functional assays: HEK-293 cells without DREADD; type: cell-based, human; settings: HEK-293 cells
Procedure: BRET assays were performed to detect receptor ligand-induced Gαo1 protein activation. […] Forty-eight hour after transfection cells were harvested, washed and resuspended in phosphate-buffered saline (PBS). Approximately, 200,000 cells/well were distributed in 96-well plates, and 5 µM Coelenterazine H (substrate for luciferase) was added to each well. Five minutes after addition of Coelenterazine H, ligands were added to each well. The fluorescence of the acceptor was quantified (excitation at 500 nm and emission at 540 nm for 1-s recordings) in a PheraStar FSX plate reader (BMG Labtech) to confirm the constant expression levels across experiments. In parallel, the BRET signal from the same batch of cells was determined as the ratio of the light emitted by mVenus (510–540 nm) over that emitted by RLuc (485 nm). Results were calculated for the BRET change (BRET ratio for the corresponding drug minus BRET ratio in the absence of the drug) 5 min after the addition of the ligands.
Intracellular Ca^2+ concentration was monitored using the fluorescent Ca^2+ biosensor GCaMP6f. HEK-293 cells were transfected with 7 µg/dish of the cDNA encoding for hM3Dq (Addgene #89149) or hM4Di (Addgene #89150) and 7 µg/dish of GCaMP6. Forty-eight hours after transfection, cells were harvested, washed, resuspended in Mg^2+-free Locke’s buffer pH 7.4 (154 mM NaCl, 5.6 mM KCl, 3.6 mM NaHCO3, 2.3 mM CaCl2, and 5 mM HEPES) containing 5.6 mM of glucose and approximately 200,000 cells/well were distributed in black 96-well plates. Increasing concentrations of the indicated compound were added to the cells and fluorescence intensity (excitation at 480 nm, emission at 530 nm) was measured at 18-s intervals during 250 s using a PHERAstar FSX (BMG Labtech). The net change in intracellular Ca^2+ concentration was expressed as F − F0 where F is the fluorescence at a given concentration of ligand and F0 is the average of the baseline values (fluorescence values of buffer-treated wells).

hM3Dq, sequence (P20309 whole entry Y149C/A239G): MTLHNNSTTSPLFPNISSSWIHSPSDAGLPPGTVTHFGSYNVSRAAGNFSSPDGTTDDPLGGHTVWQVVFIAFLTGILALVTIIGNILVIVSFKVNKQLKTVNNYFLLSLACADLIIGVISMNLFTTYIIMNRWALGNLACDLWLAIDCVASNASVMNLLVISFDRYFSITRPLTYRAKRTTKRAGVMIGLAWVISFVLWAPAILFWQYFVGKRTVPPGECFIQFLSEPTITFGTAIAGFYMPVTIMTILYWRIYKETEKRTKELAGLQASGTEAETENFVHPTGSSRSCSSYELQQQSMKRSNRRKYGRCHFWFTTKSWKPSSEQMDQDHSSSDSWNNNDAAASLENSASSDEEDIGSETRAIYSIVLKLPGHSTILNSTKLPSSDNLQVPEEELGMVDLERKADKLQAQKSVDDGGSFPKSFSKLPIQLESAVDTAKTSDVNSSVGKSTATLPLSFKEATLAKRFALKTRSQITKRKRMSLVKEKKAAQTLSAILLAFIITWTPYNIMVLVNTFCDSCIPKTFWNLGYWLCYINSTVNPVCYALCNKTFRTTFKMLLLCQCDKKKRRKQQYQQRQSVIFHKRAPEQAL

Compound: CCN1CCN(C2=Nc3cc(Cl)ccc3Nc3ccc([18F])cc32)CC1 [[18F]JHU37107]
- PET binding value, PFC mean (Figure 4, second Panel l) ([1]; PFC): 1.094
- PET binding value, PUT mean (Figure 4, second Panel l) ([1]; PUT): 1.196
- PET binding value, hM4Di mean (Figure 4, second Panel l) ([1]; hM4Di region): 2.423
- PET binding value, CB (Figure 4 Panel D, first group) ([2]; CB, individual values): 0.271 and 0.3157
- PET binding value, CB (Figure 4 Panel D, second group) ([2]; CB, individual values): 0.004 and 0.238
- PET binding value, CB (Figure 4 Panel D, third group) ([2]; CB, individual values): 0.02536 and 0.05718 and 0.04755
- PET binding value, CTX (Figure 4 Panel D, first group) ([2]; CTX, individual values): 0.3049 and 0.3358
- PET binding value, CTX (Figure 4 Panel D, second group) ([2]; CTX, individual values): 0.244 and 0.22
- PET binding value, CTX (Figure 4 Panel D, third group) ([2]; CTX, individual values): 0.4367 and 0.4206 and 0.3996
- PET binding value, baseline (Figure 4 Panel D) ([2]; first line (values equal the STR values of the third group)): 1.736 and 1.664 and 1.424 and 1.7038 and 1.723 and 1.422
- PET binding value, baseline (Figure 4 Panel D) ([2]; second line (values equal the CTX values of the third group)): 0.4367 and 0.4206 and 0.3996
- PET binding value, blocked (Figure 4 Panel D) ([2]; first line (STR by position)): 0.6764 and 0.9438 and 0.6607 and 0.8306
- PET binding value, blocked (Figure 4 Panel D) ([2]; second line (CTX by position)): 0.2742 and 0.4049
- PET binding value, blocked (Figure 4 Panel D) ([2]; third line (CB by position)): 0.2463 and 0.2748

Compound: CCN1CCN(C2=Nc3cc(Cl)ccc3Nc3ccc(F)cc32)CC1 [JHU37107, 8-Chloro-11-(4-ethylpiperazin-1-yl)-2-fluoro-5H-dibenzo[b,e][1,4]diazepine]
- Ki [3]: 10.5 nM
- Ki [4]: 23.5 nM

Compound: CCN1CCN(C2=Nc3ccccc3Nc3ccccc32)CC1 [C22, reference compound]
- Ki [4]: 9 nM

Compound: C[N+]1([O-])CCN(C2=Nc3cc(Cl)ccc3Nc3ccccc32)CC1 [CNO, clozapine N-oxide, reference compound]
- functional response, BRET (Go-alpha-Rluc8, beta1, gamma2-mVenus), no DREADD [5]: did not show any functional response
- functional response, GCaMP6f, no DREADD [5]: did not show any functional response

— publication PMC6788984, “High-potency ligands for DREADD imaging and activation in rodents and monkeys” (Nature Communications, 2019)
